Values belong to the compound of their own block, whether it stands above or below them.
Experiments:
[1] = Photophysical properties (absorption) in DMSO; assay type: physicochemical
Experimental: The photophysical properties of Ce6-curcumin conjugates and dimethyl ester ce6 were analyzed in dimethyl sulfoxide (DMSO). All the photosensitizers 7, 10, 13, and 16 (Formula IV) effectively absorbed the red light compared to dimethyl ester ce6. The major soret peak at λmax=405-408 nm and Q-bands at 667 nm for the photosensitizers 7, 10, 13, and 16 (Formula IV) and Q band peak at 656 for dimethyl ester ce6.

[2] = test system: MIA-PaCa-2; assay: Phototoxicity (PDT), MTT assay, MIA-PaCa-2; assay type: cell-based; settings: for Cell viability, Phototoxicity against MIA-PaCa-2: 3 h, 50 mW 0.09 J/cm^2 laser 100 sec, 72 h incubation
Experimental: (§1) Phototoxicity: The culture of AsPC-1 pancreatic cancer cells were grown in RPMI-1640 medium (life technologies corporation, USA) supplemented with 10% heat-inactivated fetal bovine serum (life technologies corporation, USA) and 1% penicillin (life technologies corporation, USA), whereas MIA-paca2 and PANC-1 cells were grown in DMEM. The MTT assay was used to assess the cell viability of AsPC-1, MIA-paca2, PANC-1 cells. The cells attached to a 96-well plate (5,000 cells/well) were treated with 3.125 μM, 6.25 μM, 12.5 μM, 25 μM, 50 μM of photosensitizers, 7, 10, 13, 16, and 3 for 3 h. The photosensitized cells were then irradiated with a 50 mW, 0.09 J/cm^2 laser for 100 sec. The cells were then incubated for 72 h at 37° C. in a 5% CO2 incubator and exposed to MTT [3-(4,5-dimethylthiazol-2-yl)-2,5-diphenyl-tetrazolium bromide] (250 μg/ml) for 3 h. The solution was changed to 200 μl of dimethylsulfoxide (DMSO, Sigma). After 30 min incubation and shaking in microplate mixer, the optical density (OD) was measured using a microplate reader (Thermo Fisher scientific, USA) at 570 nm wavelength. The cell viability was calculated using the following formula: Cell viability (%)=Mean optical density of treated wells/Mean optical density of control wells×100.

[3] = test system: AsPC-1 pancreatic cancer cells; assay: Dark cytotoxicity, MTT assay, AsPC-1; assay type: cell-based; settings: 3 h, no light, 72 h incubation
Experimental: as §1, with “Dark cytotoxicity:” for “Phototoxicity:”, “1” for “1%”, “h.” for “h. The photosensitized cells were then irradiated with a 50 mW, 0.09 J/cm^2 laser for 100 sec.”

[4] = test system: MIA-PaCa-2; assay: Dark cytotoxicity, MTT assay, MIA-PaCa-2; assay type: cell-based; settings: 3 h, no light, 72 h incubation
Experimental: as §1, with “Dark cytotoxicity:” for “Phototoxicity:”, “1” for “1%”, “h.” for “h. The photosensitized cells were then irradiated with a 50 mW, 0.09 J/cm^2 laser for 100 sec.”

[5] = test system: PANC-1; assay: Phototoxicity (PDT), MTT assay, PANC-1; assay type: cell-based; settings: for Cell viability, Phototoxicity against PANC-1: 3 h, 50 mW 0.09 J/cm^2 laser 100 sec, 72 h incubation
Experimental: as §1

[6] = test system: AsPC-1 pancreatic cancer cells; assay: Phototoxicity (PDT), MTT assay, AsPC-1; assay type: cell-based; settings: for Cell viability, Phototoxicity against AsPC-1: 3 h, 50 mW 0.09 J/cm^2 laser 100 sec, 72 h incubation
Experimental: as §1

[7] = Dark cytotoxicity, MTT assay, AsPC-1; assay type: cell-based; settings: human, AsPC-1 pancreatic cancer cells, 3 h, no light, 72 h incubation, read-out: Cell viability, Dark Cytotoxicity against AsPC-1
Experimental: as §1, with “Dark cytotoxicity:” for “Phototoxicity:”, “1” for “1%”, “h.” for “h. The photosensitized cells were then irradiated with a 50 mW, 0.09 J/cm^2 laser for 100 sec.”

[8] = Dark cytotoxicity, MTT assay, MIA-PaCa-2; assay type: cell-based; settings: human, MIA-PaCa-2 cells, 3 h, no light, 72 h incubation, read-out: Cell viability, Dark cytotoxicity against MIA-PaCa-2
Experimental: as §1, with “Dark cytotoxicity:” for “Phototoxicity:”, “1” for “1%”, “h.” for “h. The photosensitized cells were then irradiated with a 50 mW, 0.09 J/cm^2 laser for 100 sec.”

[9] = 12.5 μM concentration, with light

Structure (SMILES): C=Cc1c(C)c2cc3nc(c(CC(=O)OC)c4[nH]c(cc5nc(cc1[nH]2)C(C)=C5CC)c(C)c4C(=O)NCCCNC(=O)CCCC(=O)Oc1ccc(/C=C/C(=O)CC(=O)/C=C/c2ccc(O)c(OC)c2)cc1OC)C(CCC(=O)OC)C3C (stereo not shown) [Compound 7, Chlorine e6-curcumin Conjugate (7)]
Q-band peak [1]: 667 nm | Cell viability, Phototoxicity against MIA-PaCa-2 ([2]; 3.12 μM photosensitizer): 69.70% | Cell viability, Phototoxicity against MIA-PaCa-2 ([2]; 6.25 μM photosensitizer): 12.35% | Inhibition of MIA-PaCa-2 (PDT) [2, 9]: 94% | Cell viability, Phototoxicity against MIA-PaCa-2 ([2]; 12.5 μM photosensitizer): 6.03% | Cell viability, Phototoxicity against MIA-PaCa-2 ([2]; 25 μM photosensitizer): 5.18% | Cell viability, Phototoxicity against MIA-PaCa-2 ([2]; 50 μM photosensitizer): 4.99% | Cell viability, Dark Cytotoxicity against AsPC-1 ([3]; 3.12 μM photosensitizer): 100.58% | Cell viability, Dark Cytotoxicity against AsPC-1 ([3]; 6.25 μM photosensitizer): 101.61% | Cell viability, Dark Cytotoxicity against AsPC-1 ([3]; 12.5 μM photosensitizer): 103.72% | Cell viability, Dark Cytotoxicity against AsPC-1 ([3]; 25 μM photosensitizer): 97.17% | Cell viability, Dark Cytotoxicity against AsPC-1 ([3]; 50 μM photosensitizer): 90.14% | Cell viability, Dark cytotoxicity against MIA-PaCa-2 ([4]; 3.12 μM photosensitizer): 107.39% | Cell viability, Dark cytotoxicity against MIA-PaCa-2 ([4]; 6.25 μM photosensitizer): 104.17% | Cell viability, Dark cytotoxicity against MIA-PaCa-2 ([4]; 12.5 μM photosensitizer): 101.89% | Cell viability, Dark cytotoxicity against MIA-PaCa-2 ([4]; 25 μM photosensitizer): 99.23% | Cell viability, Dark cytotoxicity against MIA-PaCa-2 ([4]; 50 μM photosensitizer): 88.84% | Cell viability, Phototoxicity against PANC-1 ([5]; 3.12 μM photosensitizer): 66.14% | Cell viability, Phototoxicity against PANC-1 ([5]; 6.25 μM photosensitizer): 31.56% | Inhibition of PANC-1 (PDT) [5, 9]: 88% | Cell viability, Phototoxicity against PANC-1 ([5]; 12.5 μM photosensitizer): 12.33% | Cell viability, Phototoxicity against PANC-1 ([5]; 25 μM photosensitizer): 11.58% | Cell viability, Phototoxicity against PANC-1 ([5]; 50 μM photosensitizer): 11.87% | Cell viability, Phototoxicity against AsPC-1 ([6]; 3.12 μM photosensitizer): 85.97% | Cell viability, Phototoxicity against AsPC-1 ([6]; 6.25 μM photosensitizer): 43.03% | Inhibition of AsPC-1 (PDT) [6, 9]: 75% | Cell viability, Phototoxicity against AsPC-1 ([6]; 12.5 μM photosensitizer): 24.03% | Cell viability, Phototoxicity against AsPC-1 ([6]; 25 μM photosensitizer): 10.35% | Cell viability, Phototoxicity against AsPC-1 ([6]; 50 μM photosensitizer): 6.63%

Q-band peak [1]: 667 nm
Structure (SMILES): C=Cc1c(C)c2cc3nc(c(CC(=O)OC)c4[nH]c(cc5nc(cc1[nH]2)C(C)=C5CC)c(C)c4C(=O)NCCCOCCOCCOCCCNC(=O)CCCC(=O)Oc1ccc(/C=C/C(=O)CC(=O)/C=C/c2ccc(O)c(OC)c2)cc1OC)[C@@H](CCC(=O)OC)[C@@H]3C [Compound 16, Chlorine e6-curcumin Conjugate (16)]
Cell viability, Phototoxicity against MIA-PaCa-2 ([2]; 3.12 μM photosensitizer): 80.67% | Cell viability, Phototoxicity against MIA-PaCa-2 ([2]; 6.25 μM photosensitizer): 17.62% | Cell viability, Phototoxicity against MIA-PaCa-2 ([2]; 12.5 μM photosensitizer): 9.49% | Cell viability, Phototoxicity against MIA-PaCa-2 ([2]; 25 μM photosensitizer): 8.03% | Cell viability, Phototoxicity against MIA-PaCa-2 ([2]; 50 μM photosensitizer): 9.67% | inhibition at 25 µM ([2]; Homo sapiens, MIA PaCa-2, 25 μM concentration, with light): 92% | viability at 3.12 μM ([7]; 3.12 μM photosensitizer): 99.9% | viability at 6.25 μM ([7]; 6.25 μM photosensitizer): 103% | viability at 12.5 μM ([7]; 12.5 μM photosensitizer): 103% | viability at 25 μM ([7]; 25 μM photosensitizer): 80.4% | viability at 50 μM ([7]; 50 μM photosensitizer): 84.1% | viability at 3.12 μM ([8]; 3.12 μM photosensitizer): 122% | viability at 6.25 μM ([8]; 6.25 μM photosensitizer): 121% | viability at 12.5 μM ([8]; 12.5 μM photosensitizer): 113% | viability at 25 μM ([8]; 25 μM photosensitizer): 101% | viability at 50 μM ([8]; 50 μM photosensitizer): 72.8% | Cell viability, Phototoxicity against PANC-1 ([5]; 3.12 μM photosensitizer): 97.36% | Cell viability, Phototoxicity against PANC-1 ([5]; 6.25 μM photosensitizer): 89.19% | Cell viability, Phototoxicity against PANC-1 ([5]; 12.5 μM photosensitizer): 59.07% | Cell viability, Phototoxicity against PANC-1 ([5]; 25 μM photosensitizer): 24.07% | Cell viability, Phototoxicity against PANC-1 ([5]; 50 μM photosensitizer): 20.24% | inhibition at 25 µM ([5]; Homo sapiens, PANC-1, 25 μM concentration, with light): 76% | Cell viability, Phototoxicity against AsPC-1 ([6]; 3.12 μM photosensitizer): 87.29% | Cell viability, Phototoxicity against AsPC-1 ([6]; 6.25 μM photosensitizer): 45.79% | Cell viability, Phototoxicity against AsPC-1 ([6]; 12.5 μM photosensitizer): 32.67% | Cell viability, Phototoxicity against AsPC-1 ([6]; 25 μM photosensitizer): 25.46% | Cell viability, Phototoxicity against AsPC-1 ([6]; 50 μM photosensitizer): 27.83% | inhibition at 25 µM ([6]; Homo sapiens, ASPC1, 25 μM concentration, with light): 75%

Source: US20200172549A1, “NOVEL CHLORIN E6-CURCUMIN DERIVATIVES, PREPARATION METHOD THEREOF, AND PHARMACEUTICAL COMPOSITION CONTAINING THE SAME FOR TREATMENT OF CANCER” (DONG SUNG PHARM. CO., LTD., priority 2017, published 2020)
